Laboratory results published in patent publication US20230113037A1 (Bayer Aktiengesellschaft, priority 2019, published 2023).
Like-named read-outs stand apart in the source and are kept apart here.

What was measured:
[1] = molecular target: T1, AHR (Homo sapiens, UniProt P35869); assay: In vitro assay 1: antagonism in human cell line (AHR transactivation, firefly luciferase reporter, kynurenic acid prestimulated); format: cell-based
T1 construct: U87 MG glioblastoma cells (ATCC #HTB-14) endogenously expressing AHR; endogenous in cells; host or cells: U87 MG glioblastoma cells (ATCC #HTB-14)
T1 sequence (P35869 11-848): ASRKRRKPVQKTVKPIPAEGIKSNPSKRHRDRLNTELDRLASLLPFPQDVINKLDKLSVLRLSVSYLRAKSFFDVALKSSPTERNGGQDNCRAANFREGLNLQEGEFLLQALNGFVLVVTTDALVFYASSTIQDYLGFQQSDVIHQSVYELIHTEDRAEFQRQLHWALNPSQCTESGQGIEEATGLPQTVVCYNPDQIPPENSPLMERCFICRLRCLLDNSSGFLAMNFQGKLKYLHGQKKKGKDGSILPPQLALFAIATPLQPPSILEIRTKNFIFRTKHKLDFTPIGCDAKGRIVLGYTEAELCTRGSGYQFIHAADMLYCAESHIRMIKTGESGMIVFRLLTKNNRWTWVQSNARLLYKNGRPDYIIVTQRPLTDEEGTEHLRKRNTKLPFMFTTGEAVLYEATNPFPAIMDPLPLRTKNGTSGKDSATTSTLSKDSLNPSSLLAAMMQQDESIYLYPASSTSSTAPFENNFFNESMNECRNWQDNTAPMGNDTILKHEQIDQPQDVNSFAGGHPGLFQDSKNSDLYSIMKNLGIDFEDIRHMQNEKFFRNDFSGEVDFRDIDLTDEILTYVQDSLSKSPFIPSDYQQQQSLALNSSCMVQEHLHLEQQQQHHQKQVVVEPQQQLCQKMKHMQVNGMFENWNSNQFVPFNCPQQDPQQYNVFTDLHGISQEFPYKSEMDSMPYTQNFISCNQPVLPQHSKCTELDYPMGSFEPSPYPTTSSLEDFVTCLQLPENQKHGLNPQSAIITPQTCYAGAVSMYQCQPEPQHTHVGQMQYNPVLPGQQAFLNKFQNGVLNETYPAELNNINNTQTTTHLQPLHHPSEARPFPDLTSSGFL
Method in brief: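 Antagonism measured as loss of kynurenic acid-driven firefly luciferase from DRE reporter in stably transfected U87 MG cells; constitutive Renilla signal monitors cytotoxicity. Positive/negative control normalization, staurosporine 5 μM with 150 μM kynurenic acid as inhibition control; replicates given as mean or median.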

[2] = molecular target: T2, AHR (Mus musculus, UniProt P30561); assay: In vitro assay 3: antagonism in mouse cell line (AHR transactivation, firefly luciferase reporter, kynurenic acid prestimulated); format: cell-based; settings: 200 μM kynurenic acid, 20 hours, read-out: AHR Antagonism Mouse IC50
T2 sequence (P30561 1-848 P471L/N533S/M589L): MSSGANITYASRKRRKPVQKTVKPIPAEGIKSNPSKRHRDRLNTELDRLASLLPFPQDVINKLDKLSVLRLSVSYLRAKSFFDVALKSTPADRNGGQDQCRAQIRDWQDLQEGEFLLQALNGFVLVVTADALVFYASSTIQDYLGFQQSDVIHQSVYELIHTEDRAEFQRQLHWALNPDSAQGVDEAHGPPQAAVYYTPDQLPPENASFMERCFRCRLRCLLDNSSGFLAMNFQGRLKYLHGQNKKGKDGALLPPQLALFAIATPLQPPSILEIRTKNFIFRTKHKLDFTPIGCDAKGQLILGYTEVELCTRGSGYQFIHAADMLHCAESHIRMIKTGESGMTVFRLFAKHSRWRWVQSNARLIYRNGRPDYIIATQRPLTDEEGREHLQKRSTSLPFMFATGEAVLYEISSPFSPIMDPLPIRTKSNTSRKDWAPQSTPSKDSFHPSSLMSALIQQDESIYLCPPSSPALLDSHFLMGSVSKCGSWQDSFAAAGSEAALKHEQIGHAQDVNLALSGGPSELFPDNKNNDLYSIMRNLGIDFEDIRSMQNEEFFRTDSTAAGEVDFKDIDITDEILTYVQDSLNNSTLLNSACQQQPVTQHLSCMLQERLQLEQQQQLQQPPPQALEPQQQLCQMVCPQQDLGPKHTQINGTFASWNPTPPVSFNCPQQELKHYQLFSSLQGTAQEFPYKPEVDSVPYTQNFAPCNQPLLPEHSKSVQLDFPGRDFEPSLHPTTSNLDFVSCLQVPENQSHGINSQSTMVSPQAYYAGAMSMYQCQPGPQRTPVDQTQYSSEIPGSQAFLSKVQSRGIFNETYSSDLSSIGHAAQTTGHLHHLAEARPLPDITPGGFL
Method in brief: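 Kynurenic acid-prestimulated mouse reporter cells; stable AHR-inducible firefly luc construct with DRE sites in promoter. No-agonist wells = positive inhibition ctrl. Luminescence normalized to pos/neg ctrls; n>1 reported as mean or median.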

[3] = AHR Antagonism Human IC50 [M], firefly luciferase reporter
[4] = Hepa 1c1c7 cells, firefly luciferase reporter

COc1cccc(-c2nc3c4ccccc4nc(N[C@@H](C)C(N)=O)n3n2)c1 (single isomer, unassigned) [Example 86, N^2-[2-(3-methoxyphenyl)[1,2,4]triazolo[1,5-c]quinazolin-5-yl]alaninamide]
IC50 ([1]; AHR Antagonism Human IC50 [M]): 5.1e-09 M | IC50 ([2]; mouse Hepa 1c1c7 cells): 5.66 nM

Cc1c(-c2nc3c4cccc(Br)c4nc(N[C@@H]4CNCCNC4=O)n3n2)cnn1C [Example 979, (6R)-6-{[7-bromo-2-(1,5-dimethyl-1H-pyrazol-4-yl)[1,2,4]triazolo[1,5-c]quinazolin-5-yl]amino}-1,4-diazepan-5-one]
IC50 [1, 3]: 2.13e-08 M | IC50 [2, 4]: 10.5 nM

CCNC(=O)C(CC)Nc1nc2ccccc2c2nc(-c3cccc(OC(F)(F)F)c3)nn12 (single isomer, unassigned) [Example 319, N-ethyl-2-({2-[3-(trifluoromethoxy)phenyl][1,2,4]triazolo[1,5-c]quinazolin-5-yl}amino)butanamide]
IC50 ([1]; AHR Antagonism Human IC50 [M]): 1.74e-08 M | IC50 ([2]; mouse Hepa 1c1c7 cells): 0.502 nM

O=C1NCCNCC1Nc1nc2cccc(C3CC3)c2c2nc(-c3cccc(F)c3)nn12 (single isomer, unassigned) [Example 301, 6-{[10-cyclopropyl-2-(3-fluorophenyl)[1,2,4]triazolo[1,5-c]quinazolin-5-yl]amino}-1,4-diazepan-5-one]
IC50 ([1]; read-out: AHR Antagonism Human IC50): > 2e-05 M | IC50 ([2]; mouse Hepa 1c1c7 cells): 2240 nM

Cn1cc(-c2nc3c4cccc(Cl)c4nc(N[C@@H]4CCCCNC4=O)n3n2)cn1 [Example 194, (3R)-3-{[7-Chloro-2-(1-methyl-1H-pyrazol-4-yl)[1,2,4]triazolo[1,5-c]quinazolin-5-yl]amino}azepan-2-one]
IC50 ([1]; AHR Antagonism Human IC50 [M]): 1.17e-09 M | IC50 ([2]; mouse Hepa 1c1c7 cells): 3.83 nM

COc1ccc(-c2nc3c4cccc(Cl)c4nc(N[C@@H]4CNCCNC4=O)n3n2)cc1 [Example 421, (6R)-6-{[7-chloro-2-(4-methoxyphenyl)[1,2,4]triazolo[1,5-c]quinazolin-5-yl]amino)-1,4-diazepan-5-one]
IC50 ([1]; AHR Antagonism Human IC50 [M]): 7.09e-10 M | IC50 ([2]; mouse Hepa 1c1c7 cells): 0.69 nM

C[C@@H](Nc1nc2ccccc2c2nc(-c3cnn(C)c3)nn12)C(=O)NCCN(C)C [Example 776, N-[2-(dimethylamino)ethyl]-N^2-[2-(1-methyl-1H-pyrazol-4-yl)[1,2,4]triazolo[1,5-c]quinazolin-5-yl]-D-alaninamide]
IC50 ([1]; AHR Antagonism Human IC50 [M]): 2.92e-06 M | IC50 ([2]; mouse Hepa 1c1c7 cells): 1020 nM

C[C@@H]1CN(C(=O)[C@@H](C)Nc2nc3c(Br)cccc3c3nc(-c4cnn(C)c4)nn23)CCN1C [Example 910, (2R)-2-{[7-bromo-2-(1-methyl-1H-pyrazol-4-yl)[1,2,4]triazolo[1,5-c]quinazolin-5-yl]amino}-1-[(3R)-3,4-dimethylpiperazin-1-yl]propan-1-one]
IC50 [1, 3]: 2.4e-08 M | IC50 [2, 4]: 24.7 nM

CC[C@@H](Nc1nc2ccccc2c2nc(-c3ccc(Br)cc3OC(F)(F)F)nn12)C(N)=O [Example 697, (2R)-2-({2-[4-bromo-2-(trifluoromethoxy)phenyl][1,2,4]triazolo[1,5-c]quinazolin-5-yl}amino)butanamide]
IC50 ([1]; AHR Antagonism Human IC50 [M]): 6.22e-09 M | IC50 ([2]; mouse Hepa 1c1c7 cells): 1.19 nM

Cc1cccc2c1nc(N[C@@H]1CNCCNC1=O)n1nc(-c3cnn(C)c3)nc21 [Example 271, (6R)-6-{[7-methyl-2-(1-methyl-1H-pyrazol-4-yl)[1,2,4]triazolo[1,5-c]quinazolin-5-yl]amino}-1,4-diazepan-5-one]
IC50 ([1]; AHR Antagonism Human IC50 [M]): 7.02e-07 M | IC50 ([2]; mouse Hepa 1c1c7 cells): 13900 nM

CCn1cc(-c2nc3c4ccccc4nc(N[C@@H]4CCCCNC4=O)n3n2)c(C)n1 [Example 66, (3R)-3-{[2-(1-ethyl-3-methyl-1H-pyrazol-4-yl)[1,2,4]triazolo[1,5-c]quinazolin-5-yl]amino}azepan-2-one]
IC50 ([1]; AHR Antagonism Human IC50 [M]): 1.36e-09 M | IC50 ([2]; mouse Hepa 1c1c7 cells): 1.01 nM

Cn1nccc1-c1nc2c3cccc(C(F)(F)F)c3nc(N[C@H]3CCCCNC3=O)n2n1 [Example 807, (3S)-3-{[2-(1-methyl-1H-pyrazol-5-yl)-7-(trifluoromethyl)[1,2,4]triazolo[1,5-c]quinazolin-5-yl]amino}azepan-2-one]
IC50 [1, 3]: 1.1e-07 M | IC50 [2, 4]: 63.8 nM
